Data from patent publication US20250154154A1 (Relay Binney Street, 2nd Floor, priority 2020, published 2025).
pIC50: −log10 of the molar value.

Assays:
SRC = SRC (Homo sapiens, UniProt P12931); assay: SRC Biochemical Assay Protocol (microfluidic mobility shift assay, FLPeptide4 substrate)
Outline: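 Mobility-shift readout of phosphorylated FLPeptide4 (1.5 μM) after 90 min kinase reaction with 50 μM ATP and 0.26 nM SRC in pH 7.4 HEPES buffer. Compounds, tested 0.0017–100 μM, were preincubated 30 min with enzyme and peptide; IC50 from 4-parameter logistic fit versus neutral controls.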

RBE cells = assay: Cell Viability Protocol (CellTiterGlo), RBE cells; assay type: cell-based; conditions: RBE or SNU-1079 cells, 72 or 120 hour, cell line and time not given
Outline: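 After 72 h or 120 h compound exposure at 37° C, viability was read by CellTiterGlo as % of DMSO vehicle, with IC50 fitted by a 4-parameter curve. Cells had been seeded at 1200/well in 10% FBS RPMI 1640 and allowed 24 h before dosing.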

[1] = tested on: phospho-S6RP (Ser 235/236) in RBE cells; assay: Cellular Proliferation Protocol (cellular phospho-S6RP HTRF), RBE cells; assay type: cell-based; conditions: 6 hours treatment, RBE or SNU-1079 cells, cell line not given
Procedure: Cellular Proliferation Protocol
Cellular phospho-S6RP (Ser 235/236) was measured using a Fluorescence Resonance Energy Transfer (FRET) sandwich assay format (Cisbio HTRF Cat. No. 64RP6PEG). This format uses 2 different, labelled antibodies (Eu^3+-Cryptate donor and d2 acceptor) that positively modulate a specific signal in proportion to phospho-S6RP (Ser 235/236) directly in cells. RBE or SNU-1079 cells were cultivated in T-75 flasks at 37° C., 5% CO2, 95% relative humidity in RPMI 1640 medium with 10% FBS and 1% Penicillin/Streptomycin and detached with trypsin/EDTA at 80-90% confluency. Cells were then seeded in 40 μL volume per well in 384-well flat-bottom polystyrene microplates (Corning Cat. No. 3570) at a seeding density of 2000 cells/well for RBE and 3000 cells/well for SNU-1079 followed by 24 hour incubation at 37° C., 5% CO2, 95% relative humidity. On the next day, compounds were diluted to […] the indicated concentrations and 40 nL of these treatment compounds, along with DMSO vehicle control, were added to the cells (final concentration of compounds is then the indicated concentrations). Treatment was carried out for 6 hours at 37° C., 5% CO2, 95% relative humidity after which the plates were cooled to room temperature before aspirating the medium. Cells were then lysed on a shaker for 45 minutes at room temperature with 20 μL of 1× supplemented lysis buffer per well. After lysis, 5 μL of pre-mixed antibodies was added per well. Plates were covered with black sealing film and incubated overnight at room temperature on a shaker before being read on a PerkinElmer EnVision microplate reader. Percent activation was calculated relative to DMSO control and IC50 values were obtained from dose-response data fitted to a 4-parameter curve.

Chain of SRC (P12931 whole entry, species assumed): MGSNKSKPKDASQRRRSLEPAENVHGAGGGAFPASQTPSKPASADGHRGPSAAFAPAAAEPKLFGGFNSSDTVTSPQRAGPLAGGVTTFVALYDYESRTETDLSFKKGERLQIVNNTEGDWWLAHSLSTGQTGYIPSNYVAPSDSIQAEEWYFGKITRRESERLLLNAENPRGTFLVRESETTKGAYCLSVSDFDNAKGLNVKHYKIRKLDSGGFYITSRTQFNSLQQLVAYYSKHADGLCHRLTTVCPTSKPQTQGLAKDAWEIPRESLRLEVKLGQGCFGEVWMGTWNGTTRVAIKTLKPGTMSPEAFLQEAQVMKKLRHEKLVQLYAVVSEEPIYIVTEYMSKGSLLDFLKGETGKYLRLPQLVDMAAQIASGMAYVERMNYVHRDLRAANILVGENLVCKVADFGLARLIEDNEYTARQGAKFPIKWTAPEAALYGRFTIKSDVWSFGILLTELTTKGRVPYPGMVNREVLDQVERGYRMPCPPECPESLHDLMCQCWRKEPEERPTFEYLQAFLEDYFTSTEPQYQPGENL

Row | SMILES | pIC50 (SRC) | pIC50 (RBE cells) | pIC50 ([1]; 6 h) | pIC50 [1]
1 | C=CC(=O)N1CC(N2CCC(C#Cc3c(-c4ccc(Oc5ccccc5)cc4)c4c(N)ncnc4n3C(C)C)CC2)C1 [Example I-45] | ≥ 8.00 | ≥ 8.00 | ≥ 8.00 | 
2 | C=CC(=O)N1CC[C@@H](N2CC(C#Cc3c(-c4ccc(OC5(C)CC5)cc4)c4c(N)ncnc4n3C)C2)[C@@H](O)C1 [II-16] | 5.00 to 6.00 | 6.00 to 8.00 | 6.00 to 8.00 | 
3 | C=CC(=O)N1C[C@@H]2[C@@H](C#Cc3c(-c4c(Cl)ccc5c4OCO5)c4c(N)ncnc4n3C)[C@@H]2C1 [II-38] | 6.00 to 8.00 | 6.00 to 8.00 |  | 6.00 to 8.00
4 | C=CC(=O)N1CCC(C#Cc2[nH]c3ncnc(N)c3c2-c2ccc(Oc3ccccc3)cc2)CC1 [Example I-1] | 6.00 to 8.00 | 6.00 to 8.00 | ≥ 8.00 | 
5 | C=CC(=O)N1C[C@@H]2[C@@H](C#Cc3c(-c4ccc(Oc5cccc(C)n5)cc4OC)c4c(N)ncnc4n3C)[C@@H]2C1 [II-42] | 6.00 to 8.00 | 6.00 to 8.00 |  | 6.00 to 8.00
6 | C=CC(=O)N1CCC(C#Cc2c(-c3ccc(Oc4ccccc4)cc3)c3c(N)ncnc3n2C(C)C(N)=O)CC1 (stereo not drawn) [Example I-33] | 6.00 to 8.00 | 6.00 to 8.00 | 6.00 to 8.00 | 
7 | C=CC(=O)NCC(=O)N1C[C@@H]2[C@@H](C#Cc3c(-c4c(Cl)ccc5c4OCO5)c4c(N)ncnc4n3C)[C@@H]2C1 [II-39] | ≥ 8.00 | ≥ 8.00 |  | ≥ 8.00
8 | COc1cc(Oc2cccc(F)c2)ccc1-c1c(C#C[C@@H]2[C@H]3CN(C(=O)/C=C/CN(C)C)C[C@@H]23)n(C)c2ncnc(N)c12 [II-45] | 6.00 to 8.00 | 6.00 to 8.00 |  | 6.00 to 8.00
9 | C=CC(=O)N1CC[C@@H](N2CC(C#Cc3c(-c4ccc(OC5COC5)cc4)c4c(N)ncnc4n3C(C)C)C2)[C@@H](O)C1 [II-57] | 6.00 to 8.00 | 5.00 to 6.00 |  | 5.00 to 6.00
10 | C=CC(=O)N1CC[C@@H](N2CC(C#Cc3c(-c4ccc(Oc5cccc(C)n5)c(Cl)c4)c4c(N)ncnc4n3C)C2)[C@@H](O)C1 [II-20] | 6.00 to 8.00 | 6.00 to 8.00 |  | 6.00 to 8.00
11 | C=CC(=O)N1C[C@@H]2[C@@H](C#Cc3c(-c4ccc(Oc5cnccn5)cc4)c4c(N)ncnc4n3C)[C@@H]2C1 [II-22] | 6.00 to 8.00 | 6.00 to 8.00 |  | 6.00 to 8.00
12 | C=CC(=O)N1C[C@@H]2[C@@H](C#Cc3c(-c4ccc(Oc5ccccc5)cc4OC)c4c(N)ncnc4n3C)[C@@H]2C1 [II-41] | ≥ 8.00 | ≥ 8.00 |  | ≥ 8.00

More lines, main results first:

Row | pIC50 (SRC) | SMILES | pIC50 (RBE cells) | pIC50 ([1]; 6 h) | pIC50 [1]
13 | ≥ 8.00 | C=CC(=O)NCC(=O)N1C[C@@H]2[C@@H](C#Cc3c(-c4ccc(Oc5ccccc5)cc4)c4c(N)ncnc4n3C)[C@@H]2C1 [II-211, N-[2-[(1R,5S,6S)-6-[2-[4-amino-7-methyl-5-(4-phenoxyphenyl)-7H-pyrrolo[2,3-d]pyrimidin-6-yl]ethynyl]-3-azabicyclo[3.1.0]hexan-3-yl]-2-oxoethyl]prop-2-enamide] | ≥ 8.00 | ≥ 8.00 | 
14 | 5.00 to 6.00 | C=CC(=O)N1CCC(N2CC(C#Cc3c(-c4ccc(Oc5cccc(C)n5)c(OC)c4)c4c(N)nccc4n3C)C2)CC1 [II-80] | 6.00 to 8.00 |  | 5.00 to 6.00
15 | 6.00 to 8.00 | C=CC(=O)N1CCC(N2CC(C#Cc3c(-c4ccc(Cl)c(CF)c4)c4c(N)ncnc4n3C)C2)CC1 [II-89] | 6.00 to 8.00 |  | 6.00 to 8.00
16 | 6.00 to 8.00 | C=CC(=O)N1CC[C@H](N2CC(C#Cc3c(-c4ccc(Oc5cccc(C)n5)cc4)c4c(N)ncnc4n3C)C2)[C@H](F)C1 [II-202, 1-((3R,4S)-4-(3-((4-amino-7-methyl-5-(4-(6-methylpyridin-2-yloxy)phenyl)-7H-pyrrolo[2,3-d]pyrimidin-6-yl)ethynyl)azetidin-1-yl)-3-fluoropiperidin-1-yl)prop-2-en-1-one] | 6.00 to 8.00 | 6.00 to 8.00 | 
17 | 6.00 to 8.00 | COc1cc(-c2c(C#C[C@@H]3[C@H]4CN(C(=O)/C=C/CN(C)C)C[C@@H]34)n(C)c3ncnc(N)c23)ccc1Oc1cccc(C)n1 [II-239, (E)-1-((1R,5S,6s)-6-((4-amino-5-(3-methoxy-4-((6-methylpyridin-2-yl)oxy)phenyl)-7-methyl-7H-pyrrolo[2,3-d]pyrimidin-6-yl)ethynyl)-3-azabicyclo[3.1.0]hexan-3-yl)-4-(dimethylamino) but-2-en-1-one] | 6.00 to 8.00 | 6.00 to 8.00 | 
18 | 6.00 to 8.00 | C=CC(=O)N1CC[C@@H](N2CC(C#Cc3c(-c4ccc(Cl)c(OC)n4)c4c(N)ncnc4n3C)C2)[C@@H](O)C1 [II-318] | 6.00 to 8.00 |  | 6.00 to 8.00
19 | 6.00 to 8.00 | CN(C)C/C=C/C(=O)N1CCCC(C#Cc2c(-c3ccc(Oc4ccccc4)cc3)c3c(N)ncnc3n2C)CC1 (stereo not drawn) [II-179, (E)-1-(4-((4-amino-7-methyl-5-(4-phenoxyphenyl)-7H-pyrrolo[2,3-d]pyrimidin-6-yl)ethynyl)azepan-1-yl)-4-(dimethylamino) but-2-en-1-one] | 6.00 to 8.00 | 6.00 to 8.00 | 
20 | 6.00 to 8.00 | CN(C)C/C=C/C(=O)N1CC2(CC(C#Cc3c(-c4ccc(Oc5ccccc5)cc4)c4c(N)ncnc4n3C3CC(=O)N(C)C3)C2)C1 (stereo not drawn) [II-193, (E)-4-(4-amino-6-((2-(4-(dimethylamino)but-2-enoyl)-2-azaspiro[3.3]heptan-6-yl)ethynyl)-5-(4-phenoxyphenyl)-7H-pyrrolo[2,3-d]pyrimidin-7-yl)-1-methylpyrrolidin-2-one] | 5.00 to 6.00 | 5.00 to 6.00 | 
21 | 6.00 to 8.00 | C=CC(=O)N1CC[C@@H](N2CC(C#Cc3c(-c4ccc(OC(C)C)c(OC)c4)c4c(N)ncnc4n3C)C2)[C@@H](O)C1 [II-71] | 6.00 to 8.00 |  | 6.00 to 8.00
22 | 6.00 to 8.00 | C=CC(=O)N1CCC(N2CC(F)(C#Cc3c(-c4ccc(Oc5ccccc5)cc4)c4c(N)ncnc4n3C)C2)CC1 [II-176, 1-(4-(3-((4-amino-7-methyl-5-(4-phenoxyphenyl)-7H-pyrrolo[2,3-d]pyrimidin-6-yl)ethynyl)-3-fluoroazetidin-1-yl)piperidin-1-yl)prop-2-en-1-one] | ≥ 8.00 | ≥ 8.00 | 
23 | 6.00 to 8.00 | C=CC(=O)N1CCC(N2CC(C#Cc3c(-c4ccccc4OC)c4c(N)ncnc4n3C)C2)CC1 [II-268] | 5.00 to 6.00 | 5.00 to 6.00 | 
24 | ≥ 8.00 | C=CC(=O)N1CCC(N2CC(C#Cc3c(-c4ccc(Cl)c(O)c4)c4c(N)ncnc4n3C)C2)CC1 [II-95] | 6.00 to 8.00 |  | 6.00 to 8.00
25 | 6.00 to 8.00 | C=CC(=O)N1CCC(N2CC(C#Cc3c(-c4ccc(C(F)(F)F)cc4)c4c(N)ncnc4n3C)C2)CC1 [II-102] | 6.00 to 8.00 |  | 6.00 to 8.00
26 | 6.00 to 8.00 | C=CC(=O)N1CCC(N2CC(C#Cc3c(-c4ccc(Cl)c(F)c4)c4c(N)ncnc4n3C)C2)CC1 [II-96] | 6.00 to 8.00 |  | 6.00 to 8.00
27 | 6.00 to 8.00 | COc1cc(-c2c(C#C[C@@H]3[C@H]4CN(C(=O)/C=C/CN5CCC(F)C5)C[C@@H]34)n(C)c3ncnc(N)c23)ccc1Oc1cccc(C)n1 (stereo partly drawn) [II-238, (E)-1-((1R,5S,6s)-6-((4-amino-5-(3-methoxy-4-((6-methylpyridin-2-yl)oxy)phenyl)-7-methyl-7H-pyrrolo[2,3-d]pyrimidin-6-yl)ethynyl)-3-azabicyclo[3.1.0]hexan-3-yl)-4-(3-fluoropyrrolidin-1-yl)but-2-en-1-one] | 6.00 to 8.00 | 6.00 to 8.00 | 
28 | 6.00 to 8.00 | COCCN(C)C/C=C/C(=O)N1C[C@@H]2[C@@H](C#Cc3c(-c4ccc(Oc5cccc(F)c5)cc4)c4c(N)ncnc4n3C)[C@@H]2C1 [II-232, (E)-1-((1R,5S,6s)-6-((4-amino-5-(4-(3-fluorophenoxy)phenyl)-7-methyl-7H-pyrrolo[2,3-d]pyrimidin-6-yl)ethynyl)-3-azabicyclo[3.1.0]hexan-3-yl)-4-((2-methoxyethyl) (methyl)amino)but-2-en-1-one] | 6.00 to 8.00 | 6.00 to 8.00 | 
29 | 6.00 to 8.00 | C=CC(=O)N1CC[C@@H](N2CC(C#Cc3c(-c4ccc(Oc5ccccc5)cc4)c4c(N)ncnc4n3C)C2)[C@@H](F)C1 [II-171, 1-((3S,4R)-4-(3-((4-amino-7-methyl-5-(4-phenoxyphenyl)-7H-pyrrolo[2,3-d]pyrimidin-6-yl)ethynyl)azetidin-1-yl)-3-fluoropiperidin-1-yl)prop-2-en-1-one] | ≥ 8.00 | ≥ 8.00 | 
